The values below come from ChEMBL document CHEMBL1201862, “PubChem BioAssay data set” (2004).

The source made the active and inactive calls. Where only a bound is given, the exact number is not on record here.

Experiment [1] is described as follows: inhibitors of intracellular T. cruzi replication, confirmation, NIH3T3 host cells, beta-gal luminescence (AID 2044).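 Also: intracellular parasites grown in NIH/3T3 mouse fibroblasts as host cells; luminescent beta-galactosidase reporter signal from transgenic T. cruzi replicating inside host cells; inhibitors lower the luminescence signal.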 Format: functional, cell-based.
Experiment [2] can be described thus: cytotoxicity toward NIH3T3 fibroblasts, dose response, counter-screen, cell-based, ATP luminescence, mouse fibroblasts (AID 2010).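 Also: cells exposed to compound for about 90 hours before reading.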 It counts as functional. (In general: The purpose of a counterscreen is to sort out artefacts and off-target activity.)
The target of the next experiment is Nonstructural protein 1 (Influenza A virus, UniProt Q194T2). It counts as functional, Influenza A virus (A/California/07/2009(H1N1)).
In the next experiment the test system is HEK293. Briefly: inhibitors of LMP1-driven NF-kB reporter, dose response, cell-based, HEK293, luciferase, cherry-pick (AID 588343). It counts as functional. The conditions noted are these: Homo sapiens.
Experiment [3] is described as follows: Luminescence-based dose response cell-based high throughput screening assay for cytotoxic compounds using the IEC-6 intestinal epithelial cell line. [Related pubchem assays: 1858 (Summary AID.), 1825 (Counterscreen.), 1907 (Confirmation screen.)]. Format: functional.
The next experiment has as its target Paired box protein Pax-8 (Homo sapiens, UniProt Q06710). Kind of experiment: inhibitors of PAX8-driven TPO luciferase reporter, dose response, RMG-I cells, cherry-pick (AID 687027).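 Also: luciferase reporter driven by Pax8 target thyroperoxidase promoter measured by SteadyGlo luminescence.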 It counts as functional, cell-based.
Experiment [4] addresses T1, Mannose-6-phosphate isomerase (Homo sapiens, UniProt P34949).
T1 sequence (P34949 whole entry): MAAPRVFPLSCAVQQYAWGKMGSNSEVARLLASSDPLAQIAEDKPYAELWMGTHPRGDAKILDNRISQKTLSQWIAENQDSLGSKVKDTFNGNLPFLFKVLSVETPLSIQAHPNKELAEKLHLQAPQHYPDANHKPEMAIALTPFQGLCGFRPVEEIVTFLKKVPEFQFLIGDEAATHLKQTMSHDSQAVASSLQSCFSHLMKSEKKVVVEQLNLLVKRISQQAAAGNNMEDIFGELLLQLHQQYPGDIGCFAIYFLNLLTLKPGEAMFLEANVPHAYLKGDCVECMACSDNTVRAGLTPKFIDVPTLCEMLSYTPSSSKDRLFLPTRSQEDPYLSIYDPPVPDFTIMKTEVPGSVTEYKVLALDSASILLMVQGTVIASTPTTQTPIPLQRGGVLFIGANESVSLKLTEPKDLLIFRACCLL
Kind of experiment: human PMI inhibitors, high substrate, primary screen, biochemical, fluorescence intensity, high mannose 6-phosphate (AID 1220).

In experiment [5] the target is T2, Sentrin-specific protease 7 (Homo sapiens, UniProt Q9BQF6).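 Also: Luminescence-based dose-response confirmation of ultra-high-throughput screening hits, measuring inhibition of SENP7.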
T2 sequence (Q9BQF6 whole entry): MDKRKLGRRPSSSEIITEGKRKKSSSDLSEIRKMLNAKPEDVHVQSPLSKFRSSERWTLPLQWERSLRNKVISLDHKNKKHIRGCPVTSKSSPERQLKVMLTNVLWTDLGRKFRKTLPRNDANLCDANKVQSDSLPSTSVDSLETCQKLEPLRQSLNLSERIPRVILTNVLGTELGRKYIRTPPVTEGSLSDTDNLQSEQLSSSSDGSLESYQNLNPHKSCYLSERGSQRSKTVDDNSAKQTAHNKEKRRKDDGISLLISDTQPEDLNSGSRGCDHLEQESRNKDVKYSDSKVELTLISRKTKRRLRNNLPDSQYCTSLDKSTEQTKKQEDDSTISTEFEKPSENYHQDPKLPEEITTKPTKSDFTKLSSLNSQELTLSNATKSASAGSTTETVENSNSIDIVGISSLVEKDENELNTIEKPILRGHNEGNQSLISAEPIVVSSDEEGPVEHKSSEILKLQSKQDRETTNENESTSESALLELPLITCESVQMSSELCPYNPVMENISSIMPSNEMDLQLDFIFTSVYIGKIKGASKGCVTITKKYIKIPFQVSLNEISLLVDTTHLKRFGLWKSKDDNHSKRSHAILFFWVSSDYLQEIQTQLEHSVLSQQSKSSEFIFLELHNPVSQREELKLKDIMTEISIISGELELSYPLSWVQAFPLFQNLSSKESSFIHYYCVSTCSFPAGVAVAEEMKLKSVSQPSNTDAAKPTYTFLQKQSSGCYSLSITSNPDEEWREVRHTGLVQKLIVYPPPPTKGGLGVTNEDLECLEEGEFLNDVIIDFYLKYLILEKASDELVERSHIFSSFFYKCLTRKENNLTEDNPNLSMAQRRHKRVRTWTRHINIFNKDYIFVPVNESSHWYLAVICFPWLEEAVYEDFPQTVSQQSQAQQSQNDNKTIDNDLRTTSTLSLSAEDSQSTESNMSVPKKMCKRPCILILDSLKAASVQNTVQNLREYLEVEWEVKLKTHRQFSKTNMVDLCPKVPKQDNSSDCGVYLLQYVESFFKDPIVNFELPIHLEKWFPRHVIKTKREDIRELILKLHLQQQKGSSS
It counts as functional.

In experiment [6] the target is T3, Sentrin-specific protease 8 (Homo sapiens, UniProt Q96LD8).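 Also: luminescence read-out of SENP8 inhibition, dose-response confirmation following an ultra-high-throughput screen.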
T3 sequence (Q96LD8 whole entry): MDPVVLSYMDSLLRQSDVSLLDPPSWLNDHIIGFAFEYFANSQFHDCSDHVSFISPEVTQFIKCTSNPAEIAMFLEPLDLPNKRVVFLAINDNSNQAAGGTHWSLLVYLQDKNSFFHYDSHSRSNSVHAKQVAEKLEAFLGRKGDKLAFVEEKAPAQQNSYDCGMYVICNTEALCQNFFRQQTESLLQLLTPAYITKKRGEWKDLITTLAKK
It counts as functional.

Paired box protein Pax-8, sequence (Q06710 whole entry): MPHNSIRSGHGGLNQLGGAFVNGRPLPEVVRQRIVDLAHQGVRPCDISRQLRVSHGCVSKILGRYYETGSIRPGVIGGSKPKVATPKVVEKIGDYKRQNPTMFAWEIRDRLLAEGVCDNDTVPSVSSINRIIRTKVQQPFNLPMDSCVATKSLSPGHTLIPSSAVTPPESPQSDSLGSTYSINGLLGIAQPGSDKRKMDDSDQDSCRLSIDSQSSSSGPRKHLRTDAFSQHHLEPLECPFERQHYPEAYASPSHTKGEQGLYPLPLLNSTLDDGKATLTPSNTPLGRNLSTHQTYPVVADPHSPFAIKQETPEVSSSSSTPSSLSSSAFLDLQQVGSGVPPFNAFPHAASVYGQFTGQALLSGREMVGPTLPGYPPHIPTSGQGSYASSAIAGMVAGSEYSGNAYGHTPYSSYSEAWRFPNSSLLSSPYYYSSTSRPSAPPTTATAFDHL
Nonstructural protein 1, sequence (Q194T2 whole entry): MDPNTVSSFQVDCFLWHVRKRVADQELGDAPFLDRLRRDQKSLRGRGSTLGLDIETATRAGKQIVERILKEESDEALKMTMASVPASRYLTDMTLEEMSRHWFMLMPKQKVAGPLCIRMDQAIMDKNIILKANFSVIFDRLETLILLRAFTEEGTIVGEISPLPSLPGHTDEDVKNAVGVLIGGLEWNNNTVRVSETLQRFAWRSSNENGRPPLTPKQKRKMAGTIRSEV

Usually EC50 stands for the midpoint of the concentration-response curve. Broadly, the IC50 is the point on the concentration scale where inhibition reaches its midpoint. As usually defined, the AC50 is the concentration giving half of the maximal activity seen. Take `CCc1ccc(Nc2n[n+](-c3ccccc3)c(-c3c(Cl)cccc3Cl)s2)cc1`: the EC50 in experiment [1] was 1.35 µM (active); in [2], 5.53 µM (active). Also, on Nonstructural protein 1, the IC50 is 24.4 µM (active). The AC50 in the experiment with HEK293 is 47.5 µM (active).

With `CCOC(=O)c1c(C)[nH]c2c1-c1ccccc1C(=O)C2=O`, in experiment [3], the IC50 was 0.421 µM (active). Besides, the AC50 at Paired box protein Pax-8 is 1.05 µM (active).

For the molecule `COc1ccc2c(c1)CCC(/C=N/c1ccc3c(c1)OCO3)=C2O`, the IC50 in experiment [4] is 15.6 µM (active); in [5], 13.1 µM (active); in experiment [6], 15.1 µM (active).

For `CC(=O)NC(c1ccc2ccccc2c1)c1ccc2cccnc2c1O` (stereo not drawn), the EC50 in experiment [1] is 0.306 µM (active); in experiment [2] it was 0.589 µM (active). For the same molecule, the IC50 in experiment [3] is 1.05 µM (active). Besides, the AC50 in the experiment with HEK293 is 4.18 µM (active); on Paired box protein Pax-8 it was 1.89 µM (active).

As to `CCOC(=O)c1c(C)oc2c1c(/C=N/CCC(=O)O)c(O)c1ccccc12`, the IC50 in [4] is listed as > 50 µM (not active).

`CCOC(=O)C1=C(c2ccccc2)N=C(N)NC1c1ccc(OCc2ccc(Cl)cc2)c(OC)c1` (stereo not drawn): the IC50 on Nonstructural protein 1 was 79.2 µM (active).

In the case of `O=C(c1ccccc1)c1coc2c1C(=O)c1ccccc1C2=O`, the IC50 in experiment [5] is 12.7 µM (active); in experiment [6] it was 17.4 µM (active).
